Laboratory results: patent publication US9440969B2, “Compounds and methods for kinase modulation, and indications therefor” (PLEXXIKON INC., priority 2009, dated 2016)

How the values were obtained:
B-Raf = B-Raf (Homo sapiens, UniProt P15056); test: B-Raf kinase activity assay (AlphaScreen, biotin-MEK1 substrate); details: 100 μM ATP, 100 nM biotin-MEK1, 45 minutes at room temperature; read-out: Biochemical activity (IC50 μM) B-Raf
Summary of the method: (§1)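 AlphaScreen detection of phospho-MEK1 uses anti-phospho-MEK1/2 antibody and donor/acceptor beads, incubated 3 h. The kinase step runs 45 min at room temperature with 0.1 ng enzyme, 100 nM biotin-MEK1 and 100 μM ATP in 50 mM HEPES pH 7.0. IC50 is derived from eight compound concentrations.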

B-Raf V600E = B-Raf V600E (Homo sapiens, UniProt P15056, V600E); test: B-Raf V600E kinase activity assay (AlphaScreen, biotin-MEK1 substrate); details: 100 μM ATP, 100 nM biotin-MEK1, 45 minutes at room temperature, read-out: Biochemical activity (IC50 μM) V600E
Summary of the method: as §1

c-Raf-1 = c-Raf-1 (Homo sapiens, UniProt P04049); test: c-Raf-1 kinase activity assay (AlphaScreen, biotin-MEK1 substrate); details: 100 μM ATP, 100 nM biotin-MEK1, 45 minutes at room temperature; read-out: Biochemical activity (IC50 μM) c-Raf-1
Experimental: Assays for biochemical and cell based activity are known in the art, for example, as described in PCT publication WO 2007/002433, the disclosure of which is hereby incorporated by reference as it relates to such assays. For example, the biochemical activity IC50 values are determined with respect to inhibition of B-Raf kinase activity, c-Raf-1 kinase activity, or B-Raf V600E kinase activity, where inhibition of phosphorylation of a peptide substrate is measured as a function of compound concentration. Compounds to be tested are diluted in dimethyl sulfoxide to a concentration of 0.1 mM. These are serially diluted 15 μL into 30 μL of dimethyl sulfoxide seven times in 96 well plates for a total of 8 dilution points, and for each dilution point 1 μL is added to a well of an assay plate. Plates are prepared such that each well in a 384 well plate contains 1 μL of compound in 10 μL, volume with 0.1 ng Raf enzyme (i.e. any of B-Raf, c-Raf-1 or B-Raf V600E, Upstate Biotechnology or prepared by methods known to one of skill in the art), 50 mM HEPES, pH 7.0, 50 mM NaCl, 2 mM MgCl2, 1 mM MnCl2, 0.01% Tween-20, 1 mM DTT, and 100 nM biotin-MEK1 as substrate. The reaction is started with addition of 10 μL of 200 μM ATP (i.e. final 100 μM ATP). After incubation of the kinase reaction for 45 minutes at room temperature, 5 μL/well of Stop Solution is added (25 mM Hepes pH 7.5, 100 mM EDTA, 0.01% BSA with donor beads (Streptavidin coated beads, Perkin Elmer), acceptor beads (Protein A coated, Perkin Elmer), and anti phosphor MEK1/2 antibody (CellSignal), each at final concentration 10 μg/mL). The plates are incubated for 3 hours at room temperature and read on Envision reader (Perkin Elmer). Phosphorylation of Mek1 results in binding of the anti-phosphor-MEK1/2 antibody and association of the donor and acceptor beads such that signal correlates with kinase activity. The signal vs. compound concentration is used to determine the IC50.

[1] = tested on: COLO205 colon adenocarcinoma (B-Raf V600E mutation); test: COLO205 cell growth inhibition (ATPlite luminescence); format: cell-based; details: Homo sapiens, COLO 205, 72 h, COLO205 cells, incubated 3 days with compound
Experimental: Compounds are assessed in a variety of cell based assays. For example human cell lines with B-Raf V600E mutation (A375 melanoma, SKMEL3 melanoma, and COLO205 colon adenocarcinoma), as well as tumorigenic cell lines with wild-type B-RAF (SW620 colon adenocarcinoma) or with Ras mutations (SKMEL2 melanoma and IPC298 melanoma). Similar assays may be used to assess additional tumorigenic cell lines with Ras mutations, including, but not limited to, M202, M207, M243, M244, M296, S117, HCT116, HCT15, DLD1, MiaPaCa, A549, NCI-H23, NCI-H460, HOP62, MDA-MB231, Hs-578T, HL60, MOLT-4, and CCRF-CEM.
On day 1, cells are counted, then centrifuged in a conical tube for 5 minutes at 1000 rpm. The supernatant is removed and cells are re-suspended as follows: • SW620 (ATCC catalog #CCL-27): resuspend in Leibovitz's L-15 medium, 2 mM L-glutamine, 10% fetal bovine serum to 6×10^4 cells/mL. • A375 (ATCC catalog #CRL-1619): resuspend in Dulbecco's modified Eagle's medium, 4 mM L-glutamine, 4.5 g/L D-glucose, 10% fetal bovine serum to 6×10^4 cells/mL. • COLO205 (ATCC catalog #CCL-222): resuspend in RPMI 1640, 2 mM L-glutamine, 1.5 g/L sodium bicarbonate, 4.5 g/L D-glucose, 10 mM HEPES, 1.0 mM sodium pyruvate, 10% fetal bovine serum to 6×10^4 cells/mL. • SKMEL2 (ATCC catalog #HTB-68): resuspend in Minimum Eagle essential medium, 2 mM L-glutamine, 1.5 g/L sodium bicarbonate, 0.1 mM non-essential amino acids, 1.0 mM sodium pyruvate, 10% fetal bovine serum to 6×10^4 cells/mL. • SKMEL3 (ATCC catalog #HTB-69): resuspend in McCoy's 5A medium, 1.5 mM L-glutamine, 15% fetal bovine serum to 6×10^4 cells/mL. • IPC298 (DSMZ catalog #ACC 251): resuspend in RPMI 1640, 2 mM L-glutamine, 10% fetal bovine serum to 6×10^4 cells/mL.
The cells are plated, 50 μL in each well of a 96-well dish (Corning 3610) and incubated at 37° C. in 5% CO2 overnight, cells plated to a final concentration of cells as follows:
On day 2, compound at a maximum concentration of 5 mM is serially diluted 1:3 (e.g. 10 μL with 30 μL dimethyl sulfoxide) for a total of 8 point titration with DMSO as a control. A 1 μL aliquot of each dilution point and control is added to 249 μL growth media and 50 μL is added to a well containing cells, providing 10 μM compound at the maximum concentration point. The cells are incubated for 3 days at 37° C. in 5% CO2.
On day 5, ATPlite 1 step Luminescence Assay System (Perkin Elmer #6016739) is brought to room temperature along with the cell cultures. ATPlite is added 25 μL to each well, shake for 2 minutes, and the cells are incubated at room temperature for 10 minutes, then luminescence is read on Safire reader. The measured luminescence correlates directly with cell number, such that the reading as a function of compound concentration is used to determine the IC50 value.
It is understood that the results of these assays may vary as assay conditions are varied. Inhibition levels determined under the conditions described herein represent a relative activity for the compounds tested under the specific conditions employed. The cell based assays are likely to show variability due to the complexity of the system and the sensitivity thereof to any changes in the assay conditions. […] Results for compounds that are tested and show substantially no inhibition below the highest tested concentration are represented as “-” in the tables below. In some instances, the compounds were not tested in all of the assays, or assay results were not valid, as indicated by NA in the tables below.

B-Raf, sequence (P15056 whole entry): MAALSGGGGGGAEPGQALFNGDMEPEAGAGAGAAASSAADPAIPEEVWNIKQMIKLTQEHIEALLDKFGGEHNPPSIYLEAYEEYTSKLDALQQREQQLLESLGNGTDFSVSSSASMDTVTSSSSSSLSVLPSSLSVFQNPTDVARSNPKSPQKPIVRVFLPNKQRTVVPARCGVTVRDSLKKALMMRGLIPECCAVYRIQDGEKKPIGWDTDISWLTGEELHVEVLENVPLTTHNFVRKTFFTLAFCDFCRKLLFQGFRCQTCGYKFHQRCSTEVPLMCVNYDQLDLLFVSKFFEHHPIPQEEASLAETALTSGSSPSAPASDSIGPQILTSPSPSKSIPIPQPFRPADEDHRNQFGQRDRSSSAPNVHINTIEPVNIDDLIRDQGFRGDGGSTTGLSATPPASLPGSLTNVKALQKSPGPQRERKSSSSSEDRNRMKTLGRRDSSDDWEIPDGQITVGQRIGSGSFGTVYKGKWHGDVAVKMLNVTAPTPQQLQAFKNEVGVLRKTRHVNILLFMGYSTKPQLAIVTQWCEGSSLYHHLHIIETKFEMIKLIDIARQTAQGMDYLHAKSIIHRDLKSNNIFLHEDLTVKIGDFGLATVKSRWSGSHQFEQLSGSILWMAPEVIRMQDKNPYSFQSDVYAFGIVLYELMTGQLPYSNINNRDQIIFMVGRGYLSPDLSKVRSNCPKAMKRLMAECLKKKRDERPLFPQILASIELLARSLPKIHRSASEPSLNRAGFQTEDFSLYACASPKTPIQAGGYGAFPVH
B-Raf V600E, sequence (P15056 whole entry V600E): as the sequence (P15056 whole entry) above, with V600E counted along it
c-Raf-1, sequence (P04049 whole entry Y340D/Y341D, form open): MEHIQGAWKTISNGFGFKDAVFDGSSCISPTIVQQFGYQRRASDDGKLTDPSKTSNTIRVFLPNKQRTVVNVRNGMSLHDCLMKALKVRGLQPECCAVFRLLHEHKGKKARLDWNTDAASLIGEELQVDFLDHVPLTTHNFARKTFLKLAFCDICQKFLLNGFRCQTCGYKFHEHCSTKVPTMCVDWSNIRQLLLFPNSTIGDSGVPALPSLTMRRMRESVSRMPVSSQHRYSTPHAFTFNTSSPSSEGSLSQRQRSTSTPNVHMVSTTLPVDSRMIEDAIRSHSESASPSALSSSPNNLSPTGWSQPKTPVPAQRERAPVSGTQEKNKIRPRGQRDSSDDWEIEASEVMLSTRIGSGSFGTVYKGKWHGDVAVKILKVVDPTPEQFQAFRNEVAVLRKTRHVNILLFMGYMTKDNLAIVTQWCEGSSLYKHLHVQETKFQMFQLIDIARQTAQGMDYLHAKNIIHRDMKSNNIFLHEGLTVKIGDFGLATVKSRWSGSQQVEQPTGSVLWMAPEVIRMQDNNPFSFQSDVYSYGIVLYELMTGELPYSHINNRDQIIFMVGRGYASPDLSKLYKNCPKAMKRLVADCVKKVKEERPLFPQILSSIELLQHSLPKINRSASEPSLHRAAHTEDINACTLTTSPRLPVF

Compound	IC50 (B-Raf) [µM]	IC50 (B-Raf V600E) [µM]	IC50 (c-Raf-1) [µM]	IC50 [1] [µM]
CCCS(=O)(=O)Nc1ccc(F)c(C(=O)c2c[nH]c3ncc(-c4cnn(-c5nnn[nH]5)c4)cc23)c1F [P-1008, Propane-1-sulfonic acid (2,4-difluoro-3-{5-[1-(1H-tetrazol-5-yl)-1H-pyrazol-4-yl]-1H-pyrrolo[2,3-b]pyridine-3-carbonyl}-phenyl)-amide]	< 0.1	< 0.1	< 0.1	> 1
CCCS(=O)(=O)Nc1ccc(F)c(C(=O)c2c[nH]c3ncc(-c4ccc(-c5cccnc5)s4)cc23)c1F [P-1200, Propane-1-sulfonic acid {2,4-difluoro-3-[5-(5-pyridin-3-yl-thiophen-2-yl)-1H-pyrrolo[2,3-b]pyridine-3-carbonyl]-phenyl}-amide]	< 0.1	< 0.1	< 0.1	> 1
CCCS(=O)(=O)Nc1ccc(F)c(C(=O)c2c[nH]c3ncc(-c4ccc(-c5noc(C)n5)s4)cc23)c1F [P-1203, Propane-1-sulfonic acid (2,4-difluoro-3-{5-[5-(5-methyl-[1,2,4]oxadiazol-3-yl)-thiophen-2-yl]-1H-pyrrolo[2,3-b]pyridine-3-carbonyl}-phenyl)-amide]	< 0.1	< 0.1	< 0.1	> 1
CCCS(=O)(=O)Nc1ccc(F)c(C(=O)c2c[nH]c3ncc(-c4ccc5nccnc5c4)cc23)c1F [P-0014, Propane-1-sulfonic acid [2,4-difluoro-3-(5-quinoxalin-6-yl-1H-pyrrolo[2,3-b]pyridine-3-carbonyl)-phenyl]-amide]	< 0.1	< 0.1	< 0.1	< 1
CCCS(=O)(=O)Nc1ccc(F)c(C(=O)c2c[nH]c3ncc(-c4ccc(-c5cc[nH]n5)s4)cc23)c1F [P-1201, Propane-1-sulfonic acid (2,4-difluoro-3-{5-[5-(1H-pyrazol-3-yl)-thiophen-2-yl]-1H-pyrrolo[2,3-b]pyridine-3-carbonyl}-phenyl)-amide]	< 0.1	< 0.1	< 0.1	< 1
CCCS(=O)(=O)Nc1ccc(F)c(C(=O)c2c[nH]c3ncc(-c4csc(-n5cnc(C)c5)n4)cc23)c1F [P-1100, Propane-1-sulfonic acid (2,4-difluoro-3-{5-[2-(4-methyl-imidazol-1-yl)-thiazol-4-yl]-1H-pyrrolo[2,3-b]pyridine-3-carbonyl}-phenyl)-amide]	< 0.1	< 0.1	< 0.1	< 1
CCCS(=O)(=O)Nc1ccc(F)c(C(=O)c2c[nH]c3ncc(-c4ccc(Cl)c(C(N)=O)c4)cc23)c1F [P-1700, 2-Chloro-5-{3-[2,6-difluoro-3-(propane-1-sulfonylamino)-benzoyl]-1H-pyrrolo[2,3-b]pyridin-5-yl}-benzamide]	< 0.1	< 0.1	< 0.1	< 1
CCCS(=O)(=O)Nc1ccc(F)c(C(=O)c2c[nH]c3ncc(-c4cnc(-n5ccnc5C)s4)cc23)c1F [P-1105, Propane-1-sulfonic acid (2,4-difluoro-3-{5-[2-(2-methyl-imidazol-1-yl)-thiazol-5-yl]-1H-pyrrolo[2,3-b]pyridine-3-carbonyl}-phenyl)-amide]	< 0.1	< 0.1	< 0.1	< 1

Now from value to molecule:

IC50 (B-Raf) [µM]	IC50 (B-Raf V600E) [µM]	IC50 (c-Raf-1) [µM]	IC50 [1] [µM]	Compound
< 0.1	< 0.1	< 0.1	< 1	CCCS(=O)(=O)Nc1ccc(F)c(C(=O)c2c[nH]c3ncc(-c4cnc(-n5ccnc5)s4)cc23)c1F [P-1104, Propane-1-sulfonic acid {2,4-difluoro-3-[5-(2-imidazol-1-yl-thiazol-5-yl)-1H-pyrrolo[2,3-b]pyridine-3-carbonyl]-phenyl}-amide]
< 0.1	< 0.1	< 0.1	> 1	CCCS(=O)(=O)Nc1ccc(F)c(C(=O)c2c[nH]c3ncc(-c4cccc5[nH]ccc45)cc23)c1F [P-0019, Propane-1-sulfonic acid {2,4-difluoro-3-[5-(1H-indol-4-yl)-1H-pyrrolo[2,3-b]pyridine-3-carbonyl]-phenyl}-amide]
< 0.1	< 0.1	< 0.1	< 1	CCCS(=O)(=O)Nc1ccc(F)c(C(=O)c2c[nH]c3ncc(-c4ccc(S(N)(=O)=O)s4)cc23)c1F [P-1202, 5-{3-[2,6-Difluoro-3-(propane-1-sulfonylamino)-benzoyl]-1H-pyrrolo[2,3-b]pyridin-5-yl}-thiophene-2-sulfonic acid amide]
< 0.1	< 0.1	< 0.1	< 1	CCCS(=O)(=O)Nc1ccc(F)c(C(=O)c2c[nH]c3ncc(-c4ccc5c(c4)C(=O)NC5)cc23)c1F [P-1702, Propane-1-sulfonic acid {2,4-difluoro-3-[5-(3-oxo-2,3-dihydro-1H-isoindol-5-yl)-1H-pyrrolo[2,3-b]pyridine-3-carbonyl]-phenyl}-amide]
< 0.1	< 0.1	< 0.1	> 1	CCCS(=O)(=O)Nc1ccc(F)c(C(=O)c2c[nH]c3ncc(-c4cn5ccc(C(F)(F)F)nc5n4)cc23)c1F [P-0022, Propane-1-sulfonic acid {2,4-difluoro-3-[5-(7-trifluoromethyl-imidazo[1,2-a]pyrimidin-2-yl)-1H-pyrrolo[2,3-b]pyridine-3-carbonyl]-phenyl}-amide]
